# In US20230065799A1, “METHOD FOR ATTRIBUTING OLFACTORY TONALITIES TO OLFACTORY RECEPTOR ACTIVATION AND METHODS FOR IDENTIFYING COMPOUNDS HAVING THE ATTRIBUTED TONALITIES” (FIRMENICH SA, priority 2019, published 2023):
# What was measured:
# [1] = molecular target: T1, OR7A17 (Homo sapiens, UniProt O14581); assay: OR7A17 cell-based cAMP HTRF assay; settings: dose-response, 100% = full agonist
# T1 construct: Lucy (cleavable signal peptide) (N); FLAG (N); Rho (first 20 aa of bovine rhodopsin) (N); expressed in transfected cells
# T1 sequence (O14581 1-309): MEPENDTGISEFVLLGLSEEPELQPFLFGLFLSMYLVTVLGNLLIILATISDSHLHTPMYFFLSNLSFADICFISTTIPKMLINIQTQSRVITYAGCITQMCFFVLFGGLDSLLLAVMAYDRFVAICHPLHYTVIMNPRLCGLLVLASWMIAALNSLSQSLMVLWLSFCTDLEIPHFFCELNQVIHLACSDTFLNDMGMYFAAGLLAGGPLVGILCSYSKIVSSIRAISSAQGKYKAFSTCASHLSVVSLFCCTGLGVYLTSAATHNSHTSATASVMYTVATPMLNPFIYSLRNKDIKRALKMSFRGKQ
# [2] = molecular target: T2, OR5AU1 (Homo sapiens, UniProt Q8NGC0); assay: OR5AU1 cell-based cAMP HTRF assay; settings: for Active OR/Linked Tonality: OR5AU1 (Lactonic Coconut): receptor listed = activated by the compound; for Emax: read-out: OR5AU1 % Efficacy
# T2 construct: Lucy (cleavable signal peptide) (N); FLAG (N); Rho (first 20 aa of bovine rhodopsin) (N); expressed in transfected cells
# T2 sequence (Q8NGC0 52-362): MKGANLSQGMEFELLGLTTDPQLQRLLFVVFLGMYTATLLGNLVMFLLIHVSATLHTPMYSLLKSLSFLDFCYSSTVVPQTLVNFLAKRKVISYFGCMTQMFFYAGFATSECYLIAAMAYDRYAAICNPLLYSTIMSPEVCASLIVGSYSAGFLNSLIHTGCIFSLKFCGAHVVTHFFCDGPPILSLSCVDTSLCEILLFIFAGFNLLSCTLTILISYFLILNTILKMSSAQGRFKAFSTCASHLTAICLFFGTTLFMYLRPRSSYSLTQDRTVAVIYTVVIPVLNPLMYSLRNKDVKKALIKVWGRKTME
# [3] = molecular target: T3, OR8B3 (Homo sapiens, UniProt Q8NGG8); assay: OR8B3 cell-based cAMP HTRF assay; settings: dose-response, 100% = full agonist; for Emax: read-out: OR8B3 % Efficacy
# T3 construct: Lucy (cleavable signal peptide) (N); FLAG (N); Rho (first 20 aa of bovine rhodopsin) (N); expressed in transfected cells
# T3 sequence (Q8NGG8 1-313): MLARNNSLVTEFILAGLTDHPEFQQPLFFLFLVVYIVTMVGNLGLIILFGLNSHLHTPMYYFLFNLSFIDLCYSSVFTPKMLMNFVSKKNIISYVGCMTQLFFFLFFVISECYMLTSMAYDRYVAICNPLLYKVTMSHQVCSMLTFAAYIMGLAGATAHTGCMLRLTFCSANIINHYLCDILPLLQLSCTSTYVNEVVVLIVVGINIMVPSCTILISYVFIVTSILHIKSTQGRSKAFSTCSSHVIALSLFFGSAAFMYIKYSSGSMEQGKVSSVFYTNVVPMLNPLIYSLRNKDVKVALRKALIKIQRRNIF
# [4] = molecular target: T4, OR11A1 (Homo sapiens, UniProt Q9GZK7); assay: OR11A1 cell-based cAMP HTRF assay in HEK293T cells; settings: for Emax: HEK-293T, read-out: OR11A1 % Efficacy; for Emax / OR11A1 % Efficacy: dose-response, 100% = full agonist
# T4 construct: FLAG (N); Rho (first 20 aa of bovine rhodopsin) (N); expressed in transfected cells
# T4 sequence (Q9GZK7 1-315): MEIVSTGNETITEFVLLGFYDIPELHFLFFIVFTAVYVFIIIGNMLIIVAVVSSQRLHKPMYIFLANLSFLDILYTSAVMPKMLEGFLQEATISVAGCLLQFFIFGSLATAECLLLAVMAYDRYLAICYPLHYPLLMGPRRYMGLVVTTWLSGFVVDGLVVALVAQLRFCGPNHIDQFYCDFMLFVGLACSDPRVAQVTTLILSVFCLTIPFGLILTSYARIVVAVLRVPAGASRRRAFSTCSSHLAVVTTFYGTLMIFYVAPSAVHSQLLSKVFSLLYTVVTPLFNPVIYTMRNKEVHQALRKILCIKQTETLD
# Experimental: The molecular receptive range of the human odorant receptor OR11A1 (SEQ ID NO. 11) was tested by performing a large scale screening with a chemically and organoleptically diverse volatile compound library comprising approximately 800 compounds. Using a cell-based assay, OR11A1 was tested in an HEK293T cell line wherein the endogenous RTP1 gene has been activated and the odorant receptor chaperone was expressed (WO2016/201153 A1). Cells were co-transfected with the Flag-Rho-tagged receptor and the canonical olfactory G-protein Golf, and exposed to a single concentration of each test compound, tested individually. Receptor activity was detected by measuring the cAMP increase in the cytosol using an HTRF (Homogenous Time-Resolved Fluorescence unit) based kit (CisBio, cAMP dynamic 2 kit, 62AM4PEJ).
# First, 300 mM stock solutions for 798 test compounds were made in pure DMSO. The stock solutions for each compound were further diluted to a final test concentration of 300 μM. The final concentration of DMSO was 0.1%, and had no visible effect on the cells. Each compound was presented to a cell line expressing the OR11A1 olfactory receptor. The quality of this high-throughput screening (HTS) process was determined and the window variability and signal reliability were assessed by calculating the Z′ value of each plate (the average Z′ value per plate was 0.72±0.12, well within the required quality standards between 0.5 and 1). The result of this single concentration activation screen is shown in FIG. 3, where hits are highlighted in light grey dots.
# In a subsequent step using the same cell-based assay described above, the candidate hits were confirmed to be true agonists (activators) by performing dose-response experiments as shown in FIG. 4 for a subset of the best hits. […] Both sensitivity (potency) and activation strength (efficacy) were calculated from the curves, as a measure of EC50 (the concentration required to reach half-maximal activation level) and Span (the assay window span between baseline activity level and activation saturation plateau), respectively. These values were used to represent the molecular receptive range of OR11A1 according to the potency (X axis) and efficacy (Y axis) in FIG. 5. A partial agonist, Tonalide, is also listed. The […] agonists cover distinct perfumery tonalities: woody (Patchouli Alcohol), musky (Vulcanolide, Tonalide), and camphorous (Fenchyl Alcohol), Table 2. Taken together, the data depict the diversity of both the organoleptic tonalities and chemical structures of compounds capable of activating OR11A1, congruent with results described in WO2016/201152 A1 (musk) and EP2832347A1.(patchouli). The OR11A1 activity however was not associated with the tonalities of musk (WO2016/201152 A1) or patchouli (EP2832347A1) specifically but rather the earthy facet thereof. In fact, the single commonality between these compounds was the earthy tonality, which is semantically captured by the following descriptors: earthy, humus and earthy-moss. These compounds are neither all musks nor patchouli but they all are earthy.
# [5] = molecular target: T5, OR5A1 (Homo sapiens, UniProt Q8NGJ0); assay: OR5A1 cell-based cAMP HTRF assay; settings: dose-response, 100% = full agonist; for Emax: read-out: OR5A1 % Efficacy
# T5 construct: Lucy (cleavable signal peptide) (N); FLAG (N); Rho (first 20 aa of bovine rhodopsin) (N); expressed in transfected cells
# T5 sequence (Q8NGJ0 1-315): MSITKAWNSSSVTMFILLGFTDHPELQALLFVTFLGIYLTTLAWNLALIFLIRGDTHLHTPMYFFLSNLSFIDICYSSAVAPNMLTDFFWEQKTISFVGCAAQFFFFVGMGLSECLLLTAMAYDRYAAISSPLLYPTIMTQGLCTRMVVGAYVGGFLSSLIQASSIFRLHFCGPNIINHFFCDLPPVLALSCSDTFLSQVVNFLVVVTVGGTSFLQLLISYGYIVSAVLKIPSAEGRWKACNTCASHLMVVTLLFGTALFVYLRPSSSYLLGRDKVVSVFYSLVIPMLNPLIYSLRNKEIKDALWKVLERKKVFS
# [6] = dose-response, 100% = full agonist
molecule,measurement,setting,value
"CC1(C)CCC[C@]2(C)CC(=O)CC[C@@H]12 [Z-95, (4~{a}~{S},8~{a}~{R})-5,5,8~{a}-trimethyl-3,4,4~{a},6,7,8-hexahydro-1~{H}-naphthalen-2-one]",OR7A17 % Efficacy,[1],82%
"CCCCCCC1CCC(=O)O1 (centres unmarked) [Gamma Decalactone, 5-hexyloxolan-2-one]",Active OR/Linked Tonality: OR5AU1 (Lactonic Coconut),[2],OR5AU1/
"CCCCC1CCC(=O)O1 (centres unmarked) [Gamma Octalactone, 5-butyloxolan-2-one]",Emax,[3],100%
same,Active OR/Linked Tonality: OR5AU1 (Lactonic Coconut),[2],OR5AU1/
"O=C1CCC2CCCCC2O1 (centres unmarked) [Octahydrocoumarine, 3,4,4~{a},5,6,7,8,8~{a}-octahydrochromen-2-one]",OR8B3 % Efficacy,[3],95%
"CC(=O)/C(C)=C/C1C(C)=CCCC1(C)C (racemic) [Methyl ionone gamma, (+−)-(e)-3-methyl-4-(2,6,6-trimethyl-2-cyclohexen-1-yl)-3-buten-2-one]",Emax,[1]; read-out: OR7A17 % Efficacy,65%
"CC12CCC(C1)C(C)(C)C2O (centres unmarked) [Fenchyl Alcohol, (1~{R},2~{R},4~{S})-1,3,3-trimethylbicyclo[2.2.1]heptan-2-ol]",Emax,[4],86%
"C[C@@H]1CC[C@]2(O)C(C)(C)[C@H]3CC[C@@]2(C)[C@@H]1C3 [Patchouli Alcohol, (1~{S},3~{S},6~{R},7~{R},8~{S})-2,2,6,8-tetramethyltricyclo[5.3.1,0^{3,8}]undecan-3-ol]",OR11A1 % Efficacy,[4],83%
"CC1(C)CCCC(C)(C)C1=O [2,2,6,6-tetramethyl-1-cyclohexanone]",OR11A1 agonism in dose-response experiments,[4],did not yield any significant dose-response
"CC1CCCC2(C)CCCCC12O (centres unmarked) [Geosmin, (4~{S},8~{a}~{R})-4,8~{a}-dimethyl-1,2,3,4,5,6,7,8-octahydronaphthalen-4~{a}-ol]",Emax,[4],100%
"O=c1ccc2ccccc2o1 [Coumarin, chromen-2-one]",Emax,[3],95%
"CC1(C)[C@H]2C[C@H]3CCC(=O)C=C3[C@@H]1C2 [Tricyclone, (1~{R},7~{R},9~{S})-10,10-dimethyltricyclo[7.1.1.0^{2,7}]undec-2-en-4-one]",OR8B3 % Efficacy,[3],77%
"9-ethylidene-3-oxatricyclo[6.2.1.0^{2,7}]undecan-4-one; 10-ethylidene-3-oxatricyclo[6.2.1.0^{2,7}]undecan-4-one [Florex]",OR8B3 % Efficacy,[3],74%
"Cc1cc2c(cc1C=O)C(C)(C)[C@H](C)[C@@H](C)C2(C)C [Vulcanolide, (6~{R},7~{R})-3,5,5,6,7,8,8-heptamethyl-6,7-dihydronaphthalene-2-carbaldehyde]",OR11A1 % Efficacy,[4],89%
"CC(=O)C=CC1=C(C)CCC(C)C1(C)C (stereo not drawn) [Irone beta, 4-(2,5,6,6-tetramethylcyclohexen-1-yl)but-3-en-2-one]",Emax,[5],91%
"CCC(=O)C=CC1=C(C)CCCC1(C)C [Methylionone beta, 1-(2,6,6-trimethylcyclohexen-1-yl)pent-1-en-3-one]",Emax,[5],82%
"1-(2,3,8,8-tetramethyl-1,3,4,6,7,8~{a}-hexahydronaphthalen-2-yl)ethanone; 1-(2,3,8,8-tetramethyl-1,3,5,6,7,8~{a}-hexahydronaphthalen-2-yl)ethanone; 1-(2,3,8,8-tetramethyl-1,3,4,5,6,7-hexahydronaphthalen-2-yl)ethanone [Derambrene]",OR7A17 % Efficacy,[1],83%
"CC(=O)c1cc2c(cc1C)C(C)(C)C(C)CC2(C)C (centres unmarked) [Tonalide, 1-(3,5,5,6,8,8-hexamethyl-6,7-dihydronaphthalen-2-yl)ethanone]",OR11A1 agonism in dose-response experiments,[4],weak (partial) agonist
same,Emax,[4],21%
"CCCC1CCCC(=O)O1 (centres unmarked) [Octalactone Delta, 6-propyloxan-2-one]",Active OR/Linked Tonality: OR5AU1 (Lactonic Coconut),[2],OR5AU1/
"1-(4,8-dimethyl-12-methylidenecyclododeca-4,8-dien-1-yl)ethanone; 1-(2,6,10-trimethylcyclododeca-1,5,9-trien-1-yl)ethanone; 1-(2,6,10-trimethylcyclododeca-2,5,9-trien-1-yl)ethanone [Trimofix]",OR7A17 % Efficacy,[1],74%
"CCCCC[C@H]1OC(=O)C[C@H]1C [Tuberolide Ht, (4~{R},5~{R})-4-methyl-5-pentyloxolan-2-one]",OR5AU1 % Efficacy,[2]; [6],100%
"CCCCC1CCCC(=O)O1 (centres unmarked) [Nonalactone Delta, 6-butyloxan-2-one]",Emax,[3],97%
same,Active OR/Linked Tonality: OR5AU1 (Lactonic Coconut),[2],OR5AU1/
"4-(2,6,6-trimethylcyclohexen-1-yl)but-3-en-2-one; 4-(2,6,6-trimethylcyclohex-2-en-1-yl)but-3-en-2-one [Violette AT]",OR5A1 % Efficacy,[5],78%
"CCCCC1OC(=O)CC1C (centres unmarked) [Whiskey Lactone K, 5-butyl-4-methyloxolan-2-one]",Emax,[3],88%
same,Active OR/Linked Tonality: OR5AU1 (Lactonic Coconut),[2],OR5AU1/
"CCCCCC1CCCC(=O)O1 (centres unmarked) [Delta decalactone, 6-pentyloxan-2-one]",Emax,[2]; [6],88%
"CC=CCCC1CCCC(=O)O1 (centres unmarked) [Delta Jasmolactone, 6-pent-3-enyloxan-2-one]",Emax,[2]; [6],92%
same,Active OR/Linked Tonality: OR5AU1 (Lactonic Coconut),[2],OR5AU1/
"C[C@@H]1[C@@H]2C[C@H](C[C@]13C=CC(=O)CC3)C2(C)C [Wolfwood, (1~{S},2~{R},3~{R},5~{R})-2,6,6-trimethylspiro[bicyclo[3.1.1]heptane-3,4′-cyclohex-2-ene]-1′-one]",OR7A17 % Efficacy,[1],100%
"CCCCCC1CCCC1=O (centres unmarked) [Delphone, 2-pentylcyclopentan-1-one]",Emax,[2]; [6],80%
